From PubChem BioAssay AID1918946 (Molecular Pharmacology Branch, DTP, NCI, 2023)
Where “and” joins values, the source holds several entries; their conditions need not be identical. Equal entries are not always repeated. One block for each compound: values may come before it.

Test system: 885512-296-R-J2-PDC complex spheroid viability
Assay: Anticancer human tumor 885512-296-R-J2-PDC patient-derived breast carcinoma cell line growth inhibition
Details: for viability, T/C: stronger effect = lower value
Procedure, shortened: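 Multicellular complex spheroids of tumor cells with human endothelial cells (HUVEC) and mesenchymal stem cells; the LSD1 inhibitor iadademstat was combined with standard-of-care or investigational agents. Top concentration at or near clinical Cmax, half-log dilutions; final DMSO ≤0.25%.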

[1] = curve of first compound, second compound 0.1 µM
[2] = curve of first compound, second compound 0.316 µM
[3] = curve of first compound, second compound 1 µM
[4] = curve of first compound, second compound 3.16 µM
[5] = curve of first compound, second compound 10 µM
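Also: spheroids exposed to agents for 7 days before viability read.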

SMILES: COc1ccc([C@@H](O)c2cc(-c3ncnc4cc(N5CCOCC5)ccc34)c(F)cc2Cl)nn1 + NC1CCC(NC2CC2c2ccccc2)CC1
- IC50 [1]: 3530 nM
- IC50 [2]: 3000 nM
- IC50 [3]: 2660 nM
- IC50 [4]: 3230 nM
- IC50 [5]: 2190 nM
- viability, T/C (second compound 0.1 µM, first compound 0.0316 µM): 114%
- viability, T/C (second compound 0.1 µM, first compound 0.1 µM): 104%
- viability, T/C (second compound 0.1 µM, first compound 0.316 µM): 90.3%
- viability, T/C (second compound 0.1 µM, first compound 1 µM): 91.8%
- viability, T/C (second compound 0.1 µM, first compound 3.16 µM): 50.1%
- viability, T/C (second compound 0.1 µM, first compound 10 µM): 12.1%
- viability, T/C (second compound 0.316 µM, first compound 0.0316 µM): 128%
- viability, T/C (second compound 0.316 µM, first compound 0.1 µM): 119%
- viability, T/C (second compound 0.316 µM, first compound 0.316 µM): 101%
- viability, T/C (second compound 0.316 µM, first compound 1 µM): 85.2%
- viability, T/C (second compound 0.316 µM, first compound 3.16 µM): 46.3%
- viability, T/C (second compound 0.316 µM, first compound 10 µM): 11.4%
- viability, T/C (second compound 1 µM, first compound 0.0316 µM): 142%
- viability, T/C (second compound 1 µM, first compound 0.1 µM): 102%
- viability, T/C (second compound 1 µM, first compound 0.316 µM): 102%
- viability, T/C (second compound 1 µM, first compound 1 µM): 89.8%
- viability, T/C (second compound 1 µM, first compound 3.16 µM): 36.6%
- viability, T/C (second compound 1 µM, first compound 10 µM): 9.41%
- viability, T/C (second compound 3.16 µM, first compound 0.0316 µM): 117%
- viability, T/C (second compound 3.16 µM, first compound 0.1 µM): 109%
- viability, T/C (second compound 3.16 µM, first compound 0.316 µM): 105%
- viability, T/C (second compound 3.16 µM, first compound 1 µM): 92.8%
- viability, T/C (second compound 3.16 µM, first compound 3.16 µM): 49.7%
- viability, T/C (second compound 3.16 µM, first compound 10 µM): 10.4%
- viability, T/C (second compound 10 µM, first compound 0.0316 µM): 130%
- viability, T/C (second compound 10 µM, first compound 0.1 µM): 94.9%
- viability, T/C (second compound 10 µM, first compound 0.316 µM): 87.2%
- viability, T/C (second compound 10 µM, first compound 1 µM): 84.3%
- viability, T/C (second compound 10 µM, first compound 3.16 µM): 35%
- viability, T/C (second compound 10 µM, first compound 10 µM): 5.65%

SMILES: Nc1ccn(C2OC(CO)C(O)C2(F)F)c(=O)n1 (stereo unspecified) + NC1CC1c1ccc(-c2cccc(O)c2)cc1
- IC50 [1]: < 0.949 nM
- IC50 [2]: < 0.949 nM
- IC50 [3]: < 0.949 nM
- IC50 [4]: < 0.949 nM
- IC50 [5]: < 0.949 nM
- viability, T/C (second compound 0.1 µM, first compound 0.000949 µM): 13.8%
- viability, T/C (second compound 0.1 µM, first compound 0.003 µM): 2.18%
- viability, T/C (second compound 0.1 µM, first compound 0.00949 µM): 2%
- viability, T/C (second compound 0.1 µM, first compound 0.03 µM): 2.39%
- viability, T/C (second compound 0.1 µM, first compound 0.0949 µM): 2.84%
- viability, T/C (second compound 0.1 µM, first compound 0.3 µM): 2.16%
- viability, T/C (second compound 0.316 µM, first compound 0.000949 µM): 17.7%
- viability, T/C (second compound 0.316 µM, first compound 0.003 µM): 2.09%
- viability, T/C (second compound 0.316 µM, first compound 0.00949 µM): 1.82%
- viability, T/C (second compound 0.316 µM, first compound 0.03 µM): 2.16%
- viability, T/C (second compound 0.316 µM, first compound 0.0949 µM): 2.14%
- viability, T/C (second compound 0.316 µM, first compound 0.3 µM): 2.23%
- viability, T/C (second compound 1 µM, first compound 0.000949 µM): 12.1%
- viability, T/C (second compound 1 µM, first compound 0.003 µM): 2.01%
- viability, T/C (second compound 1 µM, first compound 0.00949 µM): 2.01%
- viability, T/C (second compound 1 µM, first compound 0.03 µM): 2.18%
- viability, T/C (second compound 1 µM, first compound 0.0949 µM): 2.05%
- viability, T/C (second compound 1 µM, first compound 0.3 µM): 2.5%
- viability, T/C (second compound 3.16 µM, first compound 0.000949 µM): 15.3%
- viability, T/C (second compound 3.16 µM, first compound 0.003 µM): 2.08%
- viability, T/C (second compound 3.16 µM, first compound 0.00949 µM): 2.46%
- viability, T/C (second compound 3.16 µM, first compound 0.03 µM): 1.83%
- viability, T/C (second compound 3.16 µM, first compound 0.0949 µM): 2.59%
- viability, T/C (second compound 3.16 µM, first compound 0.3 µM): 2.46%
- viability, T/C (second compound 10 µM, first compound 0.000949 µM): 15.8%
- viability, T/C (second compound 10 µM, first compound 0.003 µM): 2.15%
- viability, T/C (second compound 10 µM, first compound 0.00949 µM): 2.26%
- viability, T/C (second compound 10 µM, first compound 0.03 µM): 2.65%
- viability, T/C (second compound 10 µM, first compound 0.0949 µM): 2.46%
- viability, T/C (second compound 10 µM, first compound 0.3 µM): 3.06%

- IC50 (curve of compound): < 3.16 nM
SMILES: CC1COCCN1c1cc(-c2ccnn2C)c2ccnc(-c3ccn[nH]3)c2n1 (stereo unspecified)
- viability, T/C (compound 0.01 µM): 6.26% and 3.04%
- viability, T/C (compound 0.0316 µM): 2.66% and 1.79%
- viability, T/C (compound 0.1 µM): 2.1% and 2.15%
- viability, T/C (compound 0.316 µM): 4.57% and 2.49%
- viability, T/C (compound 1 µM): 11.1% and 3.37%
